Results on one compound are retold here after patent US7019029B2, “Skin whiteners containing hydroxytetronic acid derivatives” (priority 2000, dated 2006).

The assay has as its system hyperpigmented skin areas of melasma patients. Briefly: Study in melasma patients: topical treatment of hyperpigmented skin areas. The note with it: oil-in-water emulsion containing about 10% compound, twice daily for 5 to 7 days, 4 melasma patients, observed in all the patients. Type of assay: in vivo, human. The procedure: The efficacy of a preferred embodiment of the invention was tested in a clinical trial. An oil-in-water emulsion containing about 10% 4-diphenyl-2-hydroxytetronic acid was applied to various pigmented areas of the skin of 10 subjects twice daily. On normal pigmented skin types 2 and 3, visually apparent lightening was observed within 4 to 6 hours of application when compared to surrounding, untreated skin areas of the same subject. In another study, the hyperpigmented skin areas of 4 melasma patients were treated twice daily for 5 to 7 days.

For the compound `O=C1OC(c2ccccc2)(c2ccccc2)C(O)=C1O` [4-diphenyl-2-hydroxytetronic acid, 3,4-dihydroxy-5-diphenyl-2(5H)-furanone], the “lightening of the pigmented lesions” value is given as “Significant lightening”.
